Assay results as given in patent US7186749B2, “Pyrrolo-naphthyl acids and methods for using them” (Wyeth, priority 2004, dated 2007).

Columns and labels:
[1] = molecular target: T1, recombinant human plasminogen activator inhibitor-1 (PAI-1) (Homo sapiens, UniProt P05121); assay: Primary screen for PAI-1 inhibition (chromogenic tPA activity, Spectrozyme-tPA); type: biochemical; conditions: 140 nM PAI-1, 70 nM tPA, pH 6.6; for inhibition at 10 µM: test compound 10 μM; for inhibition at 25 µM: test compound 25 μM
T1 construct: purchased Molecular Innovations, Royal Oak, Mich
T1 sequence (P05121 24-402): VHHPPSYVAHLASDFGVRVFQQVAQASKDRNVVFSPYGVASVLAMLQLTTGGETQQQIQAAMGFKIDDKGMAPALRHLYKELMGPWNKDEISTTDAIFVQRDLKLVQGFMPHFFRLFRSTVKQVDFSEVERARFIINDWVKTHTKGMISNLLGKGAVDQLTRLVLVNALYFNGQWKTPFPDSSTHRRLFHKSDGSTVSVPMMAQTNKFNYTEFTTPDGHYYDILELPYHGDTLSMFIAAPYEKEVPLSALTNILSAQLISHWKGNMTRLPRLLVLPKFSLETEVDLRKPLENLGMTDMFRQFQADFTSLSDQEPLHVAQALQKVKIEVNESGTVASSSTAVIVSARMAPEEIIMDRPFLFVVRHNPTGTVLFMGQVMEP
Experimental: Test compounds are dissolved in DMSO at a final concentration of 10 mM, then diluted 100× in physiologic buffer. The inhibitory assay is initiated by the addition of the test compound (1–100 μM final concentration, maximun DMSO concentration of 0.2%) in a pH 6.6 buffer containing 140 nM recombinant human plasminogen activator inhibitor-1 (PAI-1; Molecular Innovations, Royal Oak, Mich.). Following a 1 hour incubation at room temperature, 70 nM of recombinant human tissue plasminogen activator (tPA) is added, and the combination of the test compound, PAI-1 and tPA is incubated for an additional 30 minutes. Following the second incubation, Spectrozyme-tPA (American Diagnostica, Greenwich, Conn.), a chromogenic substrate for tPA, is added and absorbance read at 405 nm at 0 and 60 minutes. Relative PAI-1 inhibition is equal to the residual tPA activity in the presence of the test compound and PAI-1. Control treatments include the complete inhibition of tPA by PAI-1 at the molar ratio employed (2:1), and the absence of any effect of the test compound on tPA alone.

human PAI-1 = human PAI-1 (Homo sapiens, UniProt P05121); assay: Antibody assay for determining IC50 of inhibition of PAI-1 (active PAI-1 bound to tPA-coated plate); type: binding; conditions: pH 7.5, human PAI-1 50 ng/ml
Sequence of human PAI-1 (P05121 24-402): as above
Experimental: This assay is based upon the non-SDS dissociable interaction between tPA and active PAI-1. Assay plates are initially coated with human tPA (10 μg/ml). Test compounds of the present invention are dissolved in DMSO at 10 mM, then diluted with physiologic buffer (pH 7.5) to a final concentration of 1–50 μM. Test compounds are incubated with human PAI-1 (50 ng/ml) for 15 minutes at room temperature. The tPA-coated plate is washed with a solution of 0.05% Tween 20 and 0.1% BSA, then the plate is blocked with a solution of 3% BSA. An aliquot of the pyrrolo-naphthyl/PAI-1 solution is then added to the tPA-coated plate, incubated at room temperature for 1 hour, and washed. Active PAI-1 bound to the plate is assessed by adding an aliquot of a 1:1000 dilution of the 33B8 monoclonal antibody against human PAI-1, and incubating the plate at room temperature for 1 hour (Molecular Innovations, Royal Oak, Mich.). The plate is again washed, and a solution of goat anti-mouse IgG-alkaline phosphatase conjugate is added at a 1:50,000 dilution in goat serum. The plate is incubated 30 minutes at room temperature, washed, and a solution of alkaline phosphatase substrate is added. The plate is incubated 45 minutes at room temperature, and color development is determined at OD405 nm. The quantitation of active PAI-1 bound to tPA at varying concentrations of the test compound is used to determine the IC50. Results are analyzed using a logarithmic best-fit equation. The assay sensitivity is 5 ng/ml of human PAI-1 as determined from a standard curve ranging from 0–100 ng/ml.

| inhibition at 10 µM [1] | inhibition at 25 µM [1] | melting point | IC50 (human PAI-1) | Structure (SMILES) |
| --- | --- | --- | --- | --- |
| 18% | 44% | 289 to 291 °C | – | O=C(O)c1ccc(COc2ccc3cc(-c4ccc(-c5ccccc5)[nH]4)ccc3c2)c(C(=O)O)c1 [Example 17, 4-({[6-(5-phenyl-1H-pyrrol-2-yl)-2-naphthyl]oxy}methyl)isophthalic acid] |
| 33% | 60% | 194 to 196 °C (dec.) | – | O=C(O)C(Cc1ccccc1)Oc1ccc2cc(-c3ccc(-c4ccccc4)n3-c3ccccc3)ccc2c1 (stereo not drawn) [Example 13, 2-{[6-(1,5-diphenyl-1H-pyrrol-2-yl)-2-naphthyl]oxy}-3-phenylpropanoic acid] |
| 48% | 58% | 258 to 260 °C (dec.) | – | O=C(O)COc1ccc2cc(-c3ccc(-c4ccccc4)n3-c3ccccc3)ccc2c1 [Example 12, {[6-(1,5-diphenyl-1H-pyrrol-2-yl)-2-naphthyl]oxy}acetic acid] |
| 23% | 31% | 228 to 229 °C | – | O=C(O)c1ccc(COc2ccc3cc(-c4ccc(-c5ccccc5)n4Cc4ccc(C(F)(F)F)cc4)ccc3c2)cc1 [Example 14, 4-{[(6-{5-phenyl-1-[4-(trifluoromethyl)benzyl]-1H-pyrrol-2-yl}-2-naphthyl)oxy]methyl}benzoic acid] |
| 40% | 63% | 250 to 252 °C | – | O=C(O)c1ccc(COc2ccc3cc(-c4ccc(-c5ccccc5)n4Cc4ccc(C(F)(F)F)cc4)ccc3c2)c(C(=O)O)c1 [Example 16, 4-{[(6-{5-phenyl-1-[4-(trifluoromethyl)benzyl]-1H-pyrrol-2-yl}-2-naphthyl)oxy]methyl}isophthalic acid] |
| 29% | 55% | 154 to 156 °C | – | O=C(O)COc1ccc2cc(-c3ccc(-c4ccccc4)n3Cc3ccc(C(F)(F)F)cc3)ccc2c1 [Example 10, [(6-{5-Phenyl-1-[4-(trifluoromethyl)benzyl]-1H-pyrrol-2-yl}-2-naphthyl)oxy]acetic acid] |
| 31% | 49% | 173 to 175 °C | – | FC(F)(F)c1ccc(Cn2c(-c3ccccc3)ccc2-c2ccc3cc(OCc4nnn[nH]4)ccc3c2)cc1 [Example 9, 5-{[(6-{5-Phenyl-1-[4-(trifluoromethyl)benzyl]-1H-pyrrol-2-yl}-2-naphthyl)oxy]methyl}-1H-tetraazole] |
| 30% | 68% | 269 to 270 °C (dec.) | – | c1ccc(-c2ccc(-c3ccc4cc(OCc5nnn[nH]5)ccc4c3)n2-c2ccccc2)cc1 [Example 11, 5-({[6-(1,5-diphenyl-1H-pyrrol-2-yl)-2-naphthyl]oxy}methyl)-1H-tetraazole] |
| 30% | 68% | 309 to 310 °C | – | O=C(O)c1ccc(COc2ccc3cc(-c4ccc(-c5ccccc5)n4-c4ccccc4)ccc3c2)cc1 [Example 15, 4-({[6-(1,5-diphenyl-1H-pyrrol-2-yl)-2-naphthyl]oxy}methyl)benzoic acid] |

More lines, now with the values behind:

| Structure (SMILES) | inhibition at 10 µM [1] | inhibition at 25 µM [1] | melting point | IC50 (human PAI-1) |
| --- | --- | --- | --- | --- |
| Cn1c(-c2ccccc2)ccc1-c1ccc2cc(OC(Cc3ccccc3)C(=O)O)ccc2c1 (stereo not drawn) [Example 7, 2-{[6-(1-methyl-5-phenyl-1H-pyrrol-2-yl)-2-naphthyl]oxy}-3-phenylpropanoic acid] | 30% | 95% | 171 to 173 °C | – |
| c1ccc(Cn2c(-c3ccccc3)ccc2-c2ccc3cc(OCc4nnn[nH]4)ccc3c2)cc1 [Example 4, 5-({[6-(1-benzyl-5-phenyl-1H-pyrrol-2-yl)-2-naphthyl]oxy}methyl)-1H-tetraazole] | 11% | 67% | 190 to 200 °C (dec.) | – |
| O=C(O)C(Cc1ccccc1)Oc1ccc2cc(-c3ccc(-c4ccccc4)n3Cc3ccc(C(F)(F)F)cc3)ccc2c1 (stereo not drawn) [Example 8, 3-phenyl-2-[(6-{5-phenyl-1-[4-(trifluoromethyl)benzyl]-1H-pyrrol-2-yl}2-naphthyl)oxy]propanoic acid] | 43% | 62% | 153 to 155 °C | – |
| c1ccc(-c2ccc(-c3ccc4cc(OCc5nnn[nH]5)ccc4c3)[nH]2)cc1 [Example 3, 5-({[6-(5-phenyl-1H-pyrrol-2-yl)-2-naphthyl]oxy}methyl)-1H-tetraazole] | 15% | 52% | 237 to 240 °C (dec.) | 33 µM |
| Cn1c(-c2ccccc2)ccc1-c1ccc2cc(OCc3nnn[nH]3)ccc2c1 [Example 5, 5-({[6-(1-methyl-5-phenyl-1H-pyrrol-2-yl)-2-naphthyl]oxy}methyl)-1H-tetraazole] | 15% | 32% | 231 to 233 °C (dec.) | – |
| O=C(O)COc1ccc2cc(-c3ccc(-c4ccccc4)n3Cc3ccccc3)ccc2c1 [Example 6, {[6-(1-benzyl-5-phenyl-1H-pyrrol-2-yl)-2-naphthyl]oxy}acetic acid] | 14% | 74% | 171 to 172 °C | – |
| O=C(O)C(Cc1ccccc1)Oc1ccc2cc(-c3ccc(-c4ccccc4)n3Cc3ccccc3)ccc2c1 (stereo not drawn) [Example 2, 2-{[6-(1-benzyl-5-phenyl-1H-pyrrol-2-yl)-2-naphthyl]oxy}-3-phenylpropanoic acid] | 37% | 66% | 70 to 80 °C | 16.1 µM |
| O=C(O)C(Cc1ccccc1)Oc1ccc2cc(-c3ccc(-c4ccccc4)[nH]3)ccc2c1 (stereo not drawn) [Example 1, 3-phenyl-2-{[6-(5-phenyl-1H-pyrrol-2-yl)-2-naphthyl]oxy}propanoic acid] | 12% | 78% | 176 to 178 °C | 44.4 µM |
